According to patent US9956293B2, “Targeted therapeutics” (Madrigal Pharmaceuticals, Inc., priority 2014, dated 2018):

system: HER2; test: HER2 degradation assay with BT-474 cell line (Example 12, FACS); assay type: cell-based; details: Homo sapiens, BT-474; SDC-TRAPs of the 41st table
Source text: HER2 Degradation Assay with BT-474 Cell Line
HER2 has emerged as a key target for anticancer drugs due to its intrinsic involvement in the phosphatidylinositol-3-kinase-Akt/protein kinase B (PI3K-Akt) and the mitogen-activated protein kinase (MAPK) pathways, both of which suppress apoptosis and promote tumor cell survival, gene transcription, angiogenesis, cellular proliferation, migration, mitosis, and differentiation. The degradation of HER2 is a measure of efficacy of anticancer therapeutics that target Hsp90. Accordingly, the SDC-TRAP molecules of the invention that comprise a binding moiety that binds Hsp90 were tested in the following HER2 degradation assay.
BT-474 cells (human breast cancer cell line ATCC HTB-20) were obtained from ATCC and seeded into 12-well tissue culture plates at 0.2×10^6/1.8 mL/well. […] Each test compound was titrated in 4-fold dilutions from 5 μM to 78 nM with DMSO and 200 μL of the titration was added to each well of the cell plate. The DMSO final concentration was 0.2%. Cells were incubated overnight at 37° C. in 5% CO2.
Media was decanted from the plate, cells were washed 1× in PBS. 400 μL trypsin (EDTA) per well was added, and the cells were incubated for 2 to 3 minutes. Cells were collected into FACS tubes containing 1 ml culture medium to neutralize the trypsin and were centrifuged for 5 minutes at 1200 rpm. Supernatant was decanted and the cells were resuspended in 5 μL FITC (anti HER2/nu)/200 μL staining buffer (1×PBS+1% FBS+0.05% Sodium Azide)/tube. Controls were […] IgG isotype control and staining buffer only. Tubes were incubated for 30 minutes in the dark at room temperature. 1 mL staining buffer was added to each tube and the tubes were centrifuged for 6 minutes at 1200 rpm. The supernatant was decanted and 300 μL staining buffer was added to each tube, which was store at 4° C. for FACS (cytometer) analysis. The cytometer readout was normalized and the potency of each compound is evaluated with IC50 calculated with XLfit™ software.

For `CC(C)c1cc(-c2nnc(O)n2-c2ccc3c(ccn3CCC3CCN(C(=O)c4ccc(CCc5c[nH]c6nc(N)[nH]c(=O)c56)cc4)CC3)c2)c(O)cc1O` [SDC-TRAP-0130, 2-amino-5-(4-(4-(2-(5-(3-(2,4-dihydroxy-5-isopropylphenyl)-5-hydroxy-4H-1,2,4-triazol-4-yl)-1H-indol-1-yl)ethyl)piperidine-1-carbonyl)phenethyl)-3H-pyrrolo[2,3-d]pyrimidin-4(7H)-one], the IC50 was 1.83 µM.

same assay, conditions: Homo sapiens; BT-474 cells

Going from `CC(C)c1cc(-c2nnc(O)n2-c2ccc(CN3CCN(CCN(C)C(=O)Nc4cccc5c4CN(C4CCC(=O)NC4=O)C5=O)CC3)cc2)c(O)cc1O` (centres unmarked) [SDC-TRAP-0105, 1-(2-(4-(4-(3-(2,4-dihydroxy-5-isopropylphenyl)-5-hydroxy-4H-1,2,4-triazol-4-yl)benzyl)piperazin-1-yl)ethyl)-3-(2-(2,6-dioxopiperidin-3-yl)-1-oxoisoindolin-4-yl)-1-methylurea] to `CC(C)c1cc(-c2nnc(O)n2-c2ccc(CN3CCN(CC(=O)Nc4cccc5c4CN(C4CCC(=O)NC4=O)C5=O)CC3)cc2)c(O)cc1O` (centres unmarked) [SDC-TRAP-0128, 2-(4-(4-(3-(2,4-dihydroxy-5-isopropylphenyl)-5-hydroxy-4H-1,2,4-triazol-4-yl)benzyl)piperazin-1-yl)-N-(2-(2,6-dioxopiperidin-3-yl)-1-oxoisoindolin-4-yl)acetamide], the IC50 falls from over 10 µM to 6.91 µM.

Going from `CC(C)c1cc(-c2nnc(O)n2-c2ccc(CCC3CCN(C(=O)Nc4cccc5c4CN(C4CCC(=O)NC4=O)C5=O)CC3)cc2)c(O)cc1O` (centres unmarked) [SDC-TRAP-0108, 4-(4-(3-(2,4-dihydroxy-5-isopropylphenyl)-5-hydroxy-4H-1,2,4-triazol-4-yl)phenethyl)-N-(2-(2,6-dioxopiperidin-3-yl)-1-oxoisoindolin-4-yl) piperidine-1-carboxamide] to `CC(C)c1cc(-c2nnc(O)n2-c2ccc(CC3CCN(C(=O)Nc4cccc5c4CN(C4CCC(=O)NC4=O)C5=O)CC3)cc2)c(O)cc1O` (centres unmarked) [SDC-TRAP-0114, 4-(4-(3-(2,4-dihydroxy-5-isopropylphenyl)-5-hydroxy-4H-1,2,4-triazol-4-yl)benzyl)-N-(2-(2,6-dioxopiperidin-3-yl)-1-oxoisoindolin-4-yl)piperidine-1-carboxamide], the IC50 falls from over 10 µM to 4.31 µM. The second is the more potent here.

First: CC(C)c1cc(-c2nnc(O)n2-c2ccc(CN3CCN(C(=O)Nc4cccc5c4CN(C4CCC(=O)NC4=O)C5=O)CC3)cc2)c(O)cc1O (centres unmarked) [SDC-TRAP-0109, 4-(4-(3-(2,4-di hydroxy-5-isopropylphenyl)-5-hydroxy-4H-1,2,4-triazol-4-yl)benzyl)-N-(2-(2,6-dioxopiperidin-3-yl)-1-oxoisoindolin-4-yl)piperazine-1-carboxamide]
Second: CC(C)c1cc(-c2nnc(O)n2-c2ccc(CN3CCN(C(=O)COC(=O)Nc4cccc5c4CN(C4CCC(=O)NC4=O)C5=O)CC3)cc2)c(O)cc1O (centres unmarked) [SDC-TRAP-0121, 2-(4-(4-(3-(2,4-dihydroxy-5-isopropylphenyl)-5-hydroxy-4H-1,2,4-triazol-4-yl)benzyl)piperazin-1-yl)-2-oxoethyl(2-(2,6-dioxopiperidin-3-yl)-1-oxoisoindolin-4-yl)carbamate]
The IC50 of the first is higher: over 10 µM for the first, 3 µM for the second. The second is the more potent here.

Going from `CC(C)c1cc(-c2nnc(O)n2-c2ccc(N3CCN(CC(=O)Nc4cccc5c4CN(C4CCC(=O)NC4=O)C5=O)CC3)cc2)c(O)cc1O` (centres unmarked) [SDC-TRAP-0110, 2-(4-(4-(3-(2,4-dihydroxy-5-isopropylphenyl)-5-hydroxy-4H-1,2,4-triazol-4-yl)phenyl)piperazin-1-yl)-N-(2-(2,6-dioxopiperidin-3-yl)-1-oxoisoindolin-4-yl)acetamide] to `CC(C)c1cc(-c2nnc(O)n2-c2ccc(N3CCN(CCCC(=O)Nc4cccc5c4CN(C4CCC(=O)NC4=O)C5=O)CC3)cc2)c(O)cc1O` (centres unmarked) [SDC-TRAP-0126, 4-(4-(4-(3-(2,4-dihydroxy-5-isopropylphenyl)-5-hydroxy-4H-1,2,4-triazol-4-yl)phenyl)piperazin-1-yl)-N-(2-(2,6-dioxopiperidin-3-yl)-1-oxoisoindolin-4-yl) butanamide], the IC50 falls from over 10 µM to 8.64 µM.

Compared with `COc1cc(O)c(-c2nnc(C(=O)NC(C)C)n2-c2ccc(CN3CCC(C(=O)Nc4cccc5c4CN(C4CCC(=O)NC4=O)C5=O)CC3)cc2)cc1C(C)C` (centres unmarked) [SDC-TRAP-0115, N-(2-(2,6-dioxopiperidin-3-yl)-1-oxoisoindolin-4-yl)-1-(4-(3-(2-hydroxy-5-isopropyl-4-methoxyphenyl)-5-(isopropylcarbamoyl)-4H-1,2,4-triazol-4-yl)benzyl)piperidine-4-carboxamide], `CCNC(=O)c1nnc(-c2cc(C(C)C)c(O)cc2O)n1-c1ccc(CN2CCC(C(=O)N3CCC(OC(=O)Nc4cccc5c4CN(C4CCC(=O)NC4=O)C5=O)CC3)CC2)cc1` (centres unmarked) [SDC-TRAP-0123, 1-(1-(4-(3-(2,4-Dihydroxy-5-isopropylphenyl)-5-(ethylcarbamoyl)-4H-1,2,4-triazol-4-yl)benzyl)piperidine-4-carbonyl)piperidin-4-yl (2-(2,6-dioxopiperidin-3-yl)-1-oxoisoindolin-4-yl)carbamate] is 2.9-fold lower in IC50: 1.89 µM for the first, 0.657 µM for the second. The second is the more potent here.

First: CC(C)c1cc(-c2nnc(O)n2-c2ccc(CN3CCN(C(=O)ONC(=O)CCCCCCC(=O)Nc4ccccc4)CC3)cc2)c(O)cc1O [SDC-TRAP-0117, N1-((4-(4-(3-(2,4-dihydroxy-5-isopropylphenyl)-5-hydroxy-4H-1,2,4-triazol-4-yl)benzyl)piperazine-1-carbonyl)oxy)-N8-phenyloctanediamide]
Second: CC(C)c1cc(-c2nnc(O)n2-c2ccc3c(ccn3CCC3CCN(C(=O)ONC(=O)CCCCCCC(=O)Nc4ccccc4)CC3)c2)c(O)cc1O [SDC-TRAP-0118, N1-((4-(2-(5-(3-(2,4-dihydroxy-5-isopropylphenyl)-5-hydroxy-4H-1,2,4-triazol-4-yl)-1H-indol-1-yl)ethyl)piperidine-1-carbonyl)oxy)-N8-phenyloctanediamide]
The IC50 of the first is 2.2-fold lower: 1.09 µM for the first, 2.35 µM for the second. The first is the more potent here.

Compared with `CC(C)c1cc(-c2nnc(O)n2-c2ccc3c(ccn3CCC3CCN(C(=O)Nc4cccc5c4CN(C4CCC(=O)NC4=O)C5=O)CC3)c2)c(O)cc1O` (centres unmarked) [SDC-TRAP-0119, 4-(2-(5-(3-(2,4-dihydroxy-5-isopropylphenyl)-5-hydroxy-4H-1,2,4-triazol-4-yl)-1H-indol-1-yl)ethyl)-N-(2-(2,6-dioxopiperidin-3-yl)-1-oxoisoindolin-4-yl)piperidine-1-carboxamide], `CC(C)c1cc(-c2nnc(O)n2-c2ccc3c(ccn3CCC3CCN(CC(=O)Nc4cccc5c4CN(C4CCC(=O)NC4=O)C5=O)CC3)c2)c(O)cc1O` (centres unmarked) [SDC-TRAP-0129, 2-(4-(2-(5-(3-(2,4-dihydroxy-5-isopropylphenyl)-5-hydroxy-4H-1,2,4-triazol-4-yl)-1H-indol-1-yl)ethyl)piperidin-1-yl)-N-(2-(2,6-dioxopiperidin-3-yl)-1-oxoisoindolin-4-yl)acetamide] is lower in IC50: over 10 µM for the first, 4.52 µM for the second.

Going from `CC(C)c1cc(-c2nnc(O)n2-c2ccc3c(ccn3CCOC(=O)Nc3cccc4c3CN(C3CCC(=O)NC3=O)C4=O)c2)c(O)cc1O` (centres unmarked) [SDC-TRAP-0122, 2-(5-(3-(2,4-dihydroxy-5-isopropylphenyl)-5-hydroxy-4H-1,2,4-triazol-4-yl)-1H-indol-1-yl)ethyl (2-(2,6-dioxopiperidin-3-yl)-1-oxoisoindolin-4-yl)carbamate] to `CC(C)c1cc(-c2nnc(O)n2-c2ccc(CC(=O)N(C)CCOC(=O)Nc3cccc4c3CN(C3CCC(=O)NC3=O)C4=O)cc2)c(O)cc1O` (centres unmarked) [SDC-TRAP-0127, 2-(2-(4-(3-(2,4-di hydroxy-5-isopropylphenyl)-5-hydroxy-4H-1,2,4-triazol-4-yl)phenyl)-N-methylacetamido)ethyl(2-(2,6-dioxopiperidin-3-yl)-1-oxoisoindolin-4-yl)carbamate], the IC50 falls from over 10 µM to 8.09 µM.

`CCNC(=O)c1nnc(-c2cc(C(C)C)c(O)cc2O)n1-c1ccc(CN2CCC(C(=O)N3CCC(COC(=O)Nc4cccc5c4CN(C4CCC(=O)NC4=O)C5=O)CC3)CC2)cc1` (centres unmarked) [SDC-TRAP-0124, (1-(1-(4-(3-(2,4-Dihydroxy-5-isopropylphenyl)-5-(ethylcarbamoyl)-4H-1,2,4-triazol-4-yl)benzyl)piperidine-4-carbonyl)piperidin-4-yl)methyl (2-(2,6-dioxopiperidin-3-yl)-1-oxoisoindolin-4-yl)carbamate] and `CCNC(=O)c1nnc(-c2cc(C(C)C)c(O)cc2O)n1-c1ccc(Oc2ccc(C(=O)N3CCC(COC(=O)Nc4cccc5c4CN(C4CCC(=O)NC4=O)C5=O)CC3)cc2)cc1` (centres unmarked) [SDC-TRAP-0125, (1-(4-(4-(3-(2,4-Dihydroxy-5-isopropylphenyl)-5-(ethylcarbamoyl)-4H-1,2,4-triazol-4-yl)phenoxy)benzoyl)piperidin-4-yl)methyl (2-(2,6-dioxopiperidin-3-yl)-1-oxoisoindolin-4-yl)carbamate] are within 1.5-fold of each other in IC50: 0.358 µM for the first, 0.312 µM for the second.

In the case of `CC(C)c1cc(-c2nnc(O)n2-c2ccc(CC3CCN(C(=O)COC(=O)Nc4cccc5c4CN(C4CCC(=O)NC4=O)C5=O)CC3)cc2)c(O)cc1O` (centres unmarked) [SDC-TRAP-0131, 2-(4-(4-(3-(2,4-dihydroxy-5-isopropylphenyl)-5-hydroxy-4H-1,2,4-triazol-4-yl)benzyl)piperidin-1-yl)-2-oxoethyl(2-(2,6-dioxopiperidin-3-yl)-1-oxoisoindolin-4-yl)carbamate], the IC50 is reported as over 5 µM.
